Source: patent publication US20220356472A1, “METHODS AND COMPOSITIONS FOR TYPE 2 DIABETES THERAPY” (Sanford Burnham Prebys Medical Discovery Institute, priority 2019, published 2022)

How the values were obtained:
Assay type in all cases: cell-based, mouse
[1] = tested on: islets isolated from WT C57BL/6 mice; assay: Gene expression in isolated islets treated with compounds
Procedure: For this purpose, the effect of a membrane-permeable intracellular Ca^2+-chelator, BAPTA-AM was tested on islets isolated from WT C57BL/6 mice. An overnight incubation with BAPTA-AM (10 μM) reduced both Ins1 and Ins2 mRNA levels (FIG. 6A, “Insulin” panel, Ctrl versus BAPTA-AM). […] On the other hand, tunicamycin (Tm, 0.5 μg/mL) in combination with BAPTA-AM rescued both Ins1 and Ins2 mRNA levels. Concomitantly, Chop and sXBP1 mRNAs, as well as MP mRNA were induced by Tm treatment (FIG. 6A, BAPTA-AM columns versus BAPTA/Tm columns).

WT and Chop βKO islets = assay: Ins1/Ins2 transcription in independent batch of islets treated with tunicamycin; conditions: tunicamycin 5 μg/mL
[2] = tested on: islets isolated from WT C57BL/6 mice; assay: Gene expression in isolated islets treated with compounds; conditions: HFn 50 nM, vs Ctrl
[3] = BAPTA-AM 10 μM, overnight incubation, vs Ctrl
[4] = Tm 0.5 μg/mL in combination with BAPTA-AM, vs BAPTA-AM

Compound: CC(=O)OCOC(=O)CN(CC(=O)OCOC(C)=O)c1ccccc1OCCOc1ccccc1N(CC(=O)OCOC(C)=O)CC(=O)OCOC(C)=O [BAPTA-AM]
- Chop level [1, 3]: reduced
- Ins1 mRNA level [1, 3]: reduced
- Ins2 mRNA level [1, 3]: reduced
- sXBP1 level [1, 3]: reduced

Compound: tunicamycin
- Chop mRNA [1, 4]: induced
- Ins1 mRNA level [1, 4]: rescued
- Ins2 mRNA level [1, 4]: rescued
- MP mRNA [1, 4]: induced
- sXBP1 mRNA [1, 4]: induced
- Ins1/Ins2 transcription (WT and Chop βKO islets): positive regulation

Compound: O=C(CC1NCCCC1O)Cn1cnc2cc(Br)c(Cl)cc2c1=O (centres unmarked) [halofuginone]
- ATF4 induction [2]: pronounced ATF4 and Chop induction
- Chop induction [2]: pronounced ATF4 and Chop induction
- Ins1 mRNA [2]: reduced
- Ins2 mRNA [2]: reduced
